Experiments:
HCT116 cells [1] = assay: Cell viability (WST-1); type: cell-based, human; conditions: FIG. 5
Experimental: (§1) The human cell lines HT29, HCT116, SW480, MDA-MB-231, MDA-MB-468, HGC-27, and PANC1 were cultured in DMEM culture medium, supplemented with 10% fetal bovine serum (FBS); N87, AGS and KATO III were cultured in RPMI culture medium supplemented with 10% FBS; CACO2 were cultured in DMEM culture medium, supplemented with 20% FBS and nonessential amino acids. All cell lines were cultured in the presence of 1% antibiotics (Penicillin and Streptomycin), at 37 °C in an atmosphere of 5% CO2 and always maintained in a subconfluence state.
(§2) Cell viability analysis was performed by using WST-1 kit (Roche), allowing to measure viable cell metabolic activity. In short, the quantitation of mitochondrial dehydrogenase activity is assessed by soluble tetrazolium salt ([…], colorless) conversion into its corresponding product, formazane (colored). The quantitative assessment of salt conversion into its colored form is then performed by spectrophotometrically calculating absorption at 450 nm. Substrate conversion levels are therefore proportional to enzymatic activity which, in turn, represents a marker of cell viability and proliferation.

HT29 cells = assay: Cell viability (WST-1); type: cell-based, human; conditions: FIG. 5
Experimental: as §1, §2

HR-deficient cell lines = conditions: previously described; cited from earlier work
AGS gastric cancer cells [2] = assay: Cell viability (WST-1); type: cell-based, human
Experimental: as §1, §2

[3] = test system: Caco2 colorectal cancer cells; assay: Cell viability (WST-1); type: cell-based, human; conditions: FIG. 1A; EM127 72 h + Oxaliplatin, 5-Fluorouracil or Irinotecan 10 μM for the last 24 h; vs chemotherapeutic compound alone
Experimental: as §1, §2

[4] = test system: HGC-27 gastric cancer cells; assay: Cell viability (WST-1); type: cell-based, human
Experimental: as §1, §2

KATO III cells = assay: Cell viability (WST-1); type: cell-based, human; conditions: FIG. 7; EM127 alone; low SMYD3 protein levels
Experimental: as §1, §2

[5] = test system: MDA-MB-231 breast cancer cells; assay: Cell viability (WST-1); type: cell-based, human; conditions: FIG. 4; EM127 + chemotherapeutic compounds (Paclitaxel 10 μM, Oxaliplatin 10 μM, Doxorubicin 1 μM)
Experimental: as §1, §2

MDA-MB-468 cells = assay: Cell viability (WST-1); type: cell-based, human; conditions: FIG. 7; EM127 alone; low SMYD3 protein levels
Experimental: as §1, §2

N87 gastric cancer cells = assay: Cell viability (WST-1); type: cell-based, human
Experimental: as §1, §2

[6] = test system: PANC1 pancreatic cancer cells; assay: Cell viability (WST-1); type: cell-based, human
Experimental: as §1, §2

[7] = test system: SW480 colorectal cancer cells; assay: Cell viability (WST-1); type: cell-based, human
Experimental: as §1, §2

HCT116 cells [8] = assay: Apoptotic cell percentage (Annexin V); type: cell-based, human; conditions: FIG. 1B; EM127 + chemotherapeutic compound (Oxaliplatin, 5-Fluorouracil or Irinotecan, 10 μM)
Experimental: as §1
(§3) Analysis of the percentage of cells undergoing programmed death, referred to as apoptosis, was performed by Annexin V assay. The concentrations of live cells, cells in early apoptosis, in total apoptosis and dead cells were measured with Muse Annexin V and Dead Cell Reagent kit (Luminex). 5×10^4 cells/mL were stained with the reagent provided by the kit. After 20 min incubation, fluorescence is read with Guava® Muse® Cell Analyzer. The test was performed on the following cell lines: HCT116, PANC1, SW480, MDA-MB-231, MCF7, AGS.

[9] = test system: HCT116-derived tumor spheroids; assay: LIVE/DEAD viability of tumorspheres; type: cell-based, human; conditions: FIG. 2; EM127 + Oxaliplatin or Irinotecan 10 μM
Experimental: The tumorspheres deriving from the continuous cell line HCT116 “HCT116-derived tumor spheroids” were obtained by using a suitable DMEM/F12 Advanced culture medium supplemented with 1× Glutamine, 1× Penicillin/streptomycin, 0.6% glucose, 1×B27, 1×N2, 20 ng/ml EGF, 10 ng/ml bFGF, and cultured in media surface-treated to ensure a very low cell adhesion.
To assess cell viability on HCT116-derived tumorspheres, LIVE/DEAD® Viability/Cytotoxicity Assay kit (Thermo Fisher) was used, allowing to discriminate live cells from dead ones with two probes measuring intracellular enzymatic activity and plasma membrane integrity. Tumorspheres were incubated with the reagent provided by the kit and then visualized with a fluorescence microscope. Live cells are stained with reagent calcein and generate a green fluorescence signal; dead cells are stained with ethidium homodimer, generating a red signal.

[10] = test system: colorectal cancer stem cells; assay: Cancer stem cell viability; type: cell-based, human; conditions: FIG. 3A; EM127 + Oxaliplatin, 5-Fluorouracil or Irinotecan 10 μM
Source text: (§4) In compliance with Art 170bis, Paragraph 3 C.P.I., it is hereby certified that: • The colorectal cancer stem cells used at the base of the invention object of the present application have been isolated from patients, and the aforementioned cells were obtained following the free and informed consent to their collection and use expressed by the person from whom said material has been collected, under the regulations in force; and • C57BL/6 mice for the AOM/DSS murine model of colorectal cancer were not genetically modified.
as §2

[11] = test system: colorectal cancer stem cells; assay: Migration assay (Boyden chamber); type: cell-based, human; conditions: FIG. 3B; EM127 + Oxaliplatin, 5-Fluorouracil or Irinotecan 10 μM
Source text: as §4
To assess cell motility, colorectal cancer tumorspheres were suspended in 200 μl non-supplemented stem cell culture medium and plated in the top section of a Boyden culture chamber, which is separated from the bottom part by a polycarbonate membrane allowing cells to migrate. The underlying section contains 600 μl of stem cell medium supplemented with 20 ng/ml EGF and 10 ng/ml basic FGF and chemotherapeutic compounds.

[12] = test system: colorectal cancer stem cells; assay: Clonogenic assay; type: cell-based, human; conditions: FIG. 3C; EM127 + Oxaliplatin, 5-Fluorouracil or Irinotecan 10 μM
Source text: as §4
For the clonogenic assay, previously dissociated colorectal cancer tumorspheres were plated in triplicate using 500 cells per experimental point and resuspended in 0.3% agarose on a 0.5% agarose layer. Subsequently, they were treated with EM127 and chemotherapeutic compounds.

[13] = test system: PANC1, SW80, AGS, N87, HGC-27 cells; assay: Cell death and viability, FIG. 6 panel of cell lines; type: cell-based, human; conditions: 72 h
Experimental: as §1
as §2, with “Substrate conversion levels are therefore proportional to enzymatic activity which, in turn, represents a marker of cell viability and proliferation.” left out
as §3, with “5×10^4 cells/mL were stained with the reagent provided by the kit.” left out, “The test was performed on the following cell lines: HCT116, PANC1, SW480, MDA-MB-231, MCF7, AGS.” left out

[14] = test system: AOM/DSS murine model of colorectal cancer; assay: AOM/DSS murine model of colorectal cancer; type: in vivo, C57BL/6 mice; conditions: FIG. 8; EM127 20 mg/kg + Irinotecan 20 mg/kg, intraperitoneally, 14 days; vs Irinotecan alone
Experimental: C57BL/6 mice were treated intraperitoneally with 12 mg/kg azoxymethane (AOM). Dextran sulfate sodium (DSS) was then administered, at 2% in water for five days, followed by two weeks with water only. This cycle was repeated thrice. At +10 days from the last DSS administration, the Inventors proceeded with the treatment with 20 mg/kg EM127 and/or 20 mg/kg Irinotecan, or with the carrier alone, intraperitoneally, for a total of 14 days.

AGS gastric cancer cells [15] = assay: Synergistic effect, nonviable/apoptotic cell population; type: cell-based, human; conditions: FIG. 9, >1 = synergistic
Experimental: (§5) Analysis of non-viable cell percentage was carried out by counting live cells and dead cells after staining with 0.01% Trypan Blue, a dye permeating cells only in the condition in which plasma membrane integrity is compromised. In short, after collecting the culture medium and the plate-adhering cells, detached by enzymatic treatment with 1% trypsin/EDTA, the pellet obtained by centrifuging was resuspended in an adequate volume of DPBS and 10 μl of cell suspension were diluted in an equal volume of Trypan blue. The counting was performed with a phase-contrast optical microscope, using a Burker chamber.
as §3

MCF7 breast cancer cells = assay: as above; type: cell-based, human; conditions: FIG. 9, >1 = synergistic
Experimental: as §5, §3

[16] = test system: MDA-MB-231 breast cancer cells; assay: as above; type: cell-based, human; conditions: FIG. 9, >1 = synergistic
Experimental: as §5, §3

[17] = single-compound treatment, 72 h, increasing concentrations
[18] = FIG. 6C, EM127 + Olaparib 10 μM, 72 h, vs single compound
[19] = EM127 72 h + 5-Fluorouracil 10 μM last 24 h
[20] = EM127 72 h + Irinotecan 10 μM last 24 h
[21] = EM127 72 h + Oxaliplatin 10 μM last 24 h
[22] = FIG. 4, EM127 + chemotherapeutic compounds (Paclitaxel 10 μM, Oxaliplatin 10 μM, Doxorubicin 1 μM)

Structure (SMILES): O=c1[nH]cc(F)c(=O)[nH]1 [5-Fluorouracil, reference compound]
- reduction of cell viability (HCT116 cells [1]; [17]): about 50%
- reduction of cell viability (HT29 cells; [17]): about 50%

Structure (SMILES): N[C@@H]1CCCC[C@H]1N.[Pt+2] [Oxaliplatin, reference compound]
- reduction of cell viability (HCT116 cells [1]; [17]): about 50%
- reduction of cell viability (HT29 cells; [17]): about 50%

Structure (SMILES): O=C(c1cc(Cc2n[nH]c(=O)c3ccccc23)ccc1F)N1CCN(C(=O)C2CC2)CC1 [Olaparib]
- sensitivity to treatment with Olaparib alone (HR-deficient cell lines): sensitive

Structure (SMILES): O=C(NC1CCN(C(=O)CCl)CC1)c1cc(C2CC2)on1 [EM127]
- cell viability (AGS gastric cancer cells [2]; [18]): reduction of cell viability
- cell viability (AGS gastric cancer cells [2]; FIG. 10, EM127 + Rucaparib): synergistic effect
- cell viability [3]: reduces cell viability with a greater effect
- reduction of cell viability (HCT116 cells [1]; [19]): about 50%
- reduction of cell viability (HCT116 cells [1]; [20]): about 50%
- reduction of cell viability (HCT116 cells [1]; [21]): about 50%
- cell viability [4, 22]: synergistic effect
- cell viability [4, 18]: reduction of cell viability
- cell viability ([4]; FIG. 10, EM127 + Rucaparib): synergistic effect
- reduction of cell viability (HT29 cells; [19]): about 50%
- reduction of cell viability (HT29 cells; [20]): about 50%
- reduction of cell viability (HT29 cells; [21]): about 50%
- cell viability (KATO III cells): absence of effect
- cell viability [5]: synergistic effect
- cell viability (MDA-MB-468 cells): absence of effect
- cell viability (N87 gastric cancer cells; [22]): synergistic effect
- cell viability (N87 gastric cancer cells; [18]): reduction of cell viability
- cell viability (N87 gastric cancer cells; FIG. 10, EM127 + Rucaparib): synergistic effect
- cell viability [6, 18]: reduction of cell viability
- cell viability ([6]; FIG. 10, EM127 + Rucaparib): synergistic effect
- cell viability ([7]; FIG. 1A, EM127 72 h + Oxaliplatin, 5-Fluorouracil or Irinotecan 10 μM for the last 24 h, vs chemotherapeutic compound alone): reduces cell viability with a greater effect
- cell viability ([7]; FIG. 6C, EM127 + Olaparib 10 μM, 72 h, vs single compound, cell line printed SW80): reduction of cell viability
- cell viability ([7]; FIG. 10, EM127 + Rucaparib): synergistic effect
- dead (apoptotic) cell percentage (HCT116 cells [8]): increased
- live and dead cells by immunofluorescence [9]: synergy
- cell viability [10]: synergistic effect
- ability to migrate [11]: synergistic effect
- ability to form colonies [12]: synergistic effect
- cell death ([13]; FIG. 6A, B, EM127 + Olaparib 10 μM, vs single compound): increase of cell death
- cell viability by HR status ([13]; FIG. 6C, combined treatment EM127 + Olaparib 10 μM): reduction of cell viability only for HR-proficient cell lines
- number of tumors at the level of the colon [14]: reduces the number of tumors
- synergistic effect (AGS gastric cancer cells [15]; EM127 + Doxorubicin): higher than 1
- synergistic effect (AGS gastric cancer cells [15]; EM127 + Paclitaxel): higher than 1
- synergistic effect (MCF7 breast cancer cells; EM127 + Doxorubicin): higher than 1
- synergistic effect (MCF7 breast cancer cells; EM127 + Paclitaxel): higher than 1
- synergistic effect ([16]; EM127 + Doxorubicin): higher than 1
- synergistic effect ([16]; EM127 + Paclitaxel): higher than 1

Structure (SMILES): CCc1c2c(nc3ccc(OC(=O)N4CCC(N5CCCCC5)CC4)cc13)-c1cc3c(c(=O)n1C2)COC(=O)[C@]3(O)CC [Irinotecan, reference compound]
- reduction of cell viability (HCT116 cells [1]; [17]): about 50%
- reduction of cell viability (HT29 cells; [17]): about 50%

— patent US20260345572A1, “PHARMACEUTICAL FORMULATIONS WITH ACTIVITY INHIBITING HISTONE METHYLTRANSFERASES FOR THE TREATMENT OF NEOPLASTIC DISEASES” (Ente Ospedaliero Specializzato in Gastroenterologia …, priority 2022, published 2026)
